Marks after values point to notes of the source that are not given here.
How the values were obtained:
[1] = tested on: intestinal tumors of Apc^Min (Min) mice; experiment: Apc Min mice spontaneous intestinal tumorigenesis model; assay type: in vivo; conditions: orally once-a-day for 28 days at 150 mg/kg/day; vehicle controls 73.3
Text: Apc^Min (Min) mice are models for genetically inherited intestinal cancer. These mice carry a dominant germline mutation in the Apc tumor suppressor gene that predisposes them to the development of numerous (>50) tumors throughout the intestinal tract.
The average tumor number for treated mice was 49.8 compared to 73.3 for vehicle controls. Drug treatment was initiated at an age when the tumors were well-established.

[2] = tested on: NCI-H460 human non-small cell lung carcinoma; experiment: NCI-H460 xenograft model; assay type: in vivo
Text: NCI-H460 is a human non-small cell lung carcinoma derived cell line. It is MDR negative, has wild type p53, and contains an oncogenic K-ras mutation.

[3] = tested on: HCT-15 human colon carcinoma; experiment: HCT-15 human colon carcinoma xenografts; assay type: in vivo
Text: HCT-15 is a human colon carcinoma derived cell line. It is MDR positive, and expresses both mutant p53 and oncogenic K-ras. The HCT-15 cell line has one of the highest levels of mdr-1/P-glycoprotein expression of cells from the NCI tumor cell line panel.
Effect of Cytotoxic Agents on the Growth of HCT-15 Human Colon Carcinoma Xenografts

HT-1376 bladder = experiment: HT-1376 orthotopic tumor model; assay type: in vivo, human; conditions: d 1-5, 11-15
H-81 gastric cancer = experiment: human tumor xenograft in nude mice, H-81; assay type: in vivo; conditions: Q5D × 5, 300 mg/kg/day
SC-2 gastric cancer = experiment: human tumor xenograft in nude mice, SC-2; assay type: in vivo; conditions: Q1D × 19, 120 mg/kg/day
SC-6 gastric cancer = experiment: human tumor xenograft in nude mice, SC-6; assay type: in vivo; conditions: Q5D × 5, 500 mg/kg/day
H-143 colorectal cancer = experiment: human tumor xenograft in nude mice, H-143; assay type: in vivo; conditions: Q5D × 5, 300 mg/kg/day
LC-376 lung cancer = experiment: human tumor xenograft in nude mice, LC-376; assay type: in vivo; conditions: Q5D × 5, 300 mg/kg/day
LC-6 lung cancer = experiment: human tumor xenograft in nude mice, LC-6; assay type: in vivo; conditions: Q5D × 5, 450 mg/kg/day
LX-1 lung cancer = experiment: human tumor xenograft in nude mice, LX-1; assay type: in vivo; conditions: Q1D × 20, 120 mg/kg/day
H-31 breast cancer = experiment: human tumor xenograft in nude mice, H-31; assay type: in vivo; conditions: Q1D × 19, 80 mg/kg/day
KB oral cancer = experiment: human tumor xenograft in nude mice, KB; assay type: in vivo; conditions: Q1D × 20, 100 mg/kg/day
[4] = dose limiting toxicity in cancer subjects, single dose and 5-day repeated dose; assay type: in vivo, human
Experimental: (2-((4-hydroxyphenyl)amino)pyrid-3-yl)-4-methoxybenzenesulfonamide was evaluated in 57 cancer subjects in single dose (16 subjects) and 5-day repeated dose regimens (41 subjects). The doses administered in the single dose segment were 80 to 480 mg/m^2/day. In the 5-day repeated dose regimen (2-((4-hydroxyphenyl)amino)pyrid-3-yl)-4-methoxybenzenesulfonamide was given at 30 to 240 mg/m^2/day for a single cycle. […] Adverse drug reactions from the single dose and 5-day repeated dose segments included nausea and vomiting, diarrhea, epigastric pain, ileus and evidence of peripheral neuropathy. For the single dose segment, the dose limiting toxicity (DLT) was Grade 3 peripheral neuropathy in 1 of 5 subjects at 480 mg/m^2/day. In the 5-day repeated dose regimen the dose limiting toxicities were Grade 3 peripheral neuropathy in 1 of 4 subjects at 210 mg/m^2/day and Grade 4 intestinal paralysis in 1 of 4 subjects at 210 mg/m^2/day and in 1 of 6 subjects at 240 mg/m^2/day.

[5] = MTD and safety in the 7-day and 21-day QD regimens in patients; assay type: in vivo
Experimental: In the 7-day QD regimen, the 250 mg QD dose has been determined to be the MTD, as dose limiting toxicities of peripheral neuropathy/ileus were reported in 2 of 6 subjects at the 300 mg QD dose.
The tumor types studied were colorectal (23), sarcoma (5), mesothelioma (3), salivary gland (2), endometrial (2), unknown (2), hepatoma (1), melanoma (1), renal cell (1), lung (1), ovary (1), and granulosa cell (1). […] Doses were escalated by 50 mg/day (25 mg twice per day). Three patients were initially treated at each dose level. […] If additional patients experienced dose-limiting toxicity, on occasion the dose level was expanded to nine patients to further assess tolerability. Response assessment was performed every two cycles.

[6] = adverse side effects reported in 134 patients; assay type: in vivo, human; conditions: of 134 patients; 200-300 mg QD, 125-175 mg BID
Experimental: For 134 patients tested, at doses of about 200 mg QD, 250 mg QD, 300 mg QD, 125 mg BID, 150 mg BID, and 175 mg BID, 16 reported anemia, of which 11 were Grades I or II and 5 were Grades (III or IV); 1 reported Grade I or II alpoecia; 8 reported Grade I or II neutropenia; and none reported fluid retention, for which Grade I is defined as mild, Grade II is defined as moderate, Grade III is defined as severe, Grade IV is defined as life threatening.

[7] = tolerability of continuous 21 day once per day dosing in xenograft mice; assay type: in vivo, nude mice; conditions: 50 mg/kg/day
[8] = tested on: M5076 transplantable murine reticulum cell sarcoma
in vivo = conditions: mouse, po
[9] = 5-day repeated dose, 210 mg/m^2/day
[10] = 150 mg/kg orally once a day for 5 days

COc1ccc(S(=O)(=O)Nc2cccnc2Nc2ccc(O)cc2)cc1 [ABT-751, N-(2-((4-hydroxyphenyl)amino)pyrid-3-yl)-4-methoxybenzenesulfonamide]
average tumor number [1]: 49.8
T/C, mean tumor volume ([2]; day 13): 58%
ILS (delay in tumor growth) ([2]; in vivo): 32%
efficacy in the NCI-H460 xenograft model ([2]; in words): good efficacy
% ILS ([3]; 50 mg/kg/d PO, QD, days 1-8): 34%
T/C ([3]; 50 mg/kg/d PO, QD, days 1-8, 2 trials): 50 (2)
efficacy in HCT-15 xenografts ([3]; in words): effective in inhibiting tumor growth
% T/C (HT-1376 bladder; oral 100 mg/kg/d QD): 63%
% T/C (HT-1376 bladder; oral 100 mg/kg/d b.i.d.): 86^e %
T/C (%) (H-81 gastric cancer): 40%
T/C (%) (SC-2 gastric cancer): 28%
T/C (%) (SC-6 gastric cancer): 22%
T/C (%) (H-143 colorectal cancer): 17%
T/C (%) (LC-376 lung cancer): 18%
T/C (%) (LC-6 lung cancer): 31%
T/C (%) (LX-1 lung cancer): 37%
T/C (%) (H-31 breast cancer): 13%
T/C (%) (KB oral cancer): 15%
dose limiting toxicity: Grade 3 peripheral neuropathy, subjects affected [4, 9]: 1 of 4
dose limiting toxicity: Grade 4 intestinal paralysis, subjects affected [4, 9]: 1 of 4
dose limiting toxicity: Grade 4 intestinal paralysis, subjects affected ([4]; 5-day repeated dose, 240 mg/m^2/day): 1 of 6
dose limiting toxicity: Grade 3 peripheral neuropathy, subjects affected ([4]; single dose, 480 mg/m^2/day): 1 of 5
MTD ([5]; 7-day QD regimen): 250 mg
MTD ([5]; QD regimen given for 21 days): 200 mg
dose limiting toxicities of fatigue, anorexia and suspect small bowel obstruction, subjects affected ([5]; human, in vivo): ⅔
myelosuppression, renal or hepatic toxicity ([5]; human, in vivo): no significant
dose limiting toxicities of peripheral neuropathy/ileus, subjects affected ([5]; human, in vivo, 7 days): 2 of 6
patients reporting Grade I or II alopecia [6]: 1
patients reporting Grade I or II neutropenia [6]: 8
patients reporting anemia [6]: 16
patients reporting anemia Grades I or II [6]: 11
patients reporting anemia Grades III or IV [6]: 5
patients reporting fluid retention [6]: none
adverse side effects [7]: essentially without adverse side effects
ILS (percent increase in life span) [8, 10]: 42%
T/C (tumor mass of test group divided by tumor mass of control group) [8, 10]: 13%
antitumor activity in the M5076 model ([8]; in words): significant antitumor activity
MTD (in vivo): ~150 mg/kg

From patent publication US20050267166A1, “Continuous dosing regimen” (priority 2004, published 2005)
